Experimental findings from PubChem BioAssay AID226 (DTP/NCI, 2004) are described below.

The assay has as its system B6C3F1 mice, intracerebral ependymoblastoma, median survival T/C. Description: NCI In Vivo Anticancer Drug Screen. Data for tumor model Ependymoblastoma (intracerebral) in B6C3F1 mice. Particulars: endpoint: median survival time, higher = longer survival. As for the experimental part:
The antitumor activity of compounds was measured in mice bearing transplantable tumors. Survival or tumor size were measured and the results are expressed as the measurement made in the treated group (T) divided by the measurement made in the vehicle treated control group (C). The tumor model used in this assay is Ependymoblastoma (intracerebral) in B6C3F1 mice

The mark [1] stands for this setting: dose: 16.0 mg/kg/injection, schedule: Q01DX005 (ip), vehicle: saline with Tween-80.
Where [2] appears, read: dose: 128.0 mg/kg/injection, schedule: Q01DX005 (ip), vehicle: saline with Tween-80.

“And” between values parts separate entries of the source, which are not always exact repeats. Identical values can stand only once. Inconclusive results and toxic doses are left out.

On to `CN(N=O)C(N)=O`, for which the T/C reads like this: (dose: 0.5 mg/kg/injection, schedule: Q01DX005 (ip), vehicle: saline + alcohol) 98 % of control and 101 % of control and 107 % of control; (dose: 1.56 mg/kg/injection, schedule: Q01DX009 (ip), vehicle: saline) 161 % of control; (dose: 2.0 mg/kg/injection, schedule: Q#A X002 (ip), vehicle: saline + alcohol) 115 % of control; (dose: 3.12 mg/kg/injection, schedule: Q01DX009 (ip), vehicle: saline) 161 % of control; (dose: 4.0 mg/kg/injection, schedule: Q01DX001 (ip), vehicle: saline + alcohol) 118 % of control and 120 % of control; (dose: 4.0 mg/kg/injection, schedule: Q01DX005 (oral), vehicle: saline + alcohol) 150 % of control. Also, the T/C was 156 % of control (dose: 4.0 mg/kg/injection, schedule: Q## X006 (ip), vehicle: saline + alcohol); 113 % of control (dose: 4.0 mg/kg/injection, schedule: Q#A X002 (ip), vehicle: saline + alcohol); 164 % of control (dose: 6.25 mg/kg/injection, schedule: Q01DX009 (ip), vehicle: saline); 121 % of control (dose: 8.0 mg/kg/injection, schedule: Q01DX001 (ip), vehicle: saline + alcohol); 150 % of control (dose: 8.0 mg/kg/injection, schedule: Q## X004 (ip), vehicle: saline + alcohol); 156 % of control (dose: 8.0 mg/kg/injection, schedule: Q## X006 (ip), vehicle: saline + alcohol). For the same compound, the T/C is 157 % of control (dose: 10.0 mg/kg/injection, schedule: Q01DX001 (ip), vehicle: saline + alcohol); 123 % of control (dose: 16.0 mg/kg/injection, schedule: Q01DX001 (oral), vehicle: saline + alcohol); 118 % of control (dose: 16.0 mg/kg/injection, schedule: Q01DX005 (ip), vehicle: Klucel (hydroxypropylcellulose) (HPC)); 150 % of control (dose: 16.0 mg/kg/injection, schedule: Q01DX005 (oral), vehicle: saline + alcohol); 162 % of control (dose: 16.0 mg/kg/injection, schedule: Q## X006 (ip), vehicle: saline + alcohol); 157 % of control (dose: 20.0 mg/kg/injection, schedule: Q01DX001 (ip), vehicle: saline + alcohol). For the same compound, the T/C runs as follows: (dose: 32.0 mg/kg/injection, schedule: Q01DX001 (ip), vehicle: saline + alcohol) 116 % of control; (dose: 32.0 mg/kg/injection, schedule: Q01DX001 (oral), vehicle: saline + alcohol) 118 % of control; (dose: 32.0 mg/kg/injection, schedule: Q01DX005 (oral), vehicle: saline + alcohol) 94 % of control; (dose: 32.0 mg/kg/injection, schedule: Q## X004 (ip), vehicle: saline + alcohol) 178 % of control; (dose: 40.0 mg/kg/injection, schedule: Q01DX001 (ip), vehicle: saline + alcohol) 161 % of control; (dose: 40.0 mg/kg/injection, schedule: Q01DX001 (ip), vehicle: saline) 122 % of control. Besides, the T/C is, setting by setting: (dose: 64.0 mg/kg/injection, schedule: Q01DX001 (oral), vehicle: saline + alcohol) 111 % of control; (dose: 80.0 mg/kg/injection, schedule: Q01DX001 (ip), vehicle: saline + alcohol) 183 % of control; (dose: 128.0 mg/kg/injection, schedule: Q01DX001 (oral), vehicle: saline + alcohol) 107 % of control and 121 % of control; (dose: 256.0 mg/kg/injection, schedule: Q01DX001 (oral), vehicle: saline + alcohol) 112 % of control.
`CN(N=O)C(=O)Nc1c[nH]c(=O)[nH]c1=O`: the T/C under setting [1] is 114 % of control.
Turning to `CC(=O)OCC1OC(n2cnc3c(=S)nc[nH]c32)C(OC(C)=O)C1OC(C)=O` (stereo unspecified), the T/C by setting is: (dose: 50.0 mg/kg/injection, schedule: Q01DX005 (ip), vehicle: suspension in saline) 100 % of control; (dose: 100.0 mg/kg/injection, schedule: Q01DX005 (ip), vehicle: suspension in saline) 111 % of control; (dose: 200.0 mg/kg/injection, schedule: Q01DX005 (ip), vehicle: suspension in saline) 108 % of control.
`Cc1cn(C2CC(O)C(CO)O2)c(=O)[nH]c1=O` (stereo unspecified): the T/C is, setting by setting: (dose: 64.0 mg/kg/injection, schedule: Q01DX005 (ip), vehicle: suspension in saline) 104 % of control; (dose: 125.0 mg/kg/injection, schedule: Q01DX003 (ip), vehicle: saline with Tween-80) 95 % of control; (dose: 125.0 mg/kg/injection, schedule: Q04DX003 (ip), vehicle: saline with Tween-80) 111 % of control; (dose: 128.0 mg/kg/injection, schedule: Q01DX005 (ip), vehicle: suspension in saline) 94 % of control; (dose: 250.0 mg/kg/injection, schedule: Q01DX003 (ip), vehicle: saline with Tween-80) 99 % of control; (dose: 250.0 mg/kg/injection, schedule: Q04DX003 (ip), vehicle: saline with Tween-80) 113 % of control. The T/C was 95 % of control (dose: 256.0 mg/kg/injection, schedule: Q01DX005 (ip), vehicle: suspension in saline); 95 % of control (dose: 500.0 mg/kg/injection, schedule: Q01DX003 (ip), vehicle: saline with Tween-80); 92 % of control and 120 % of control (dose: 500.0 mg/kg/injection, schedule: Q04DX003 (ip), vehicle: saline with Tween-80); 92 % of control (dose: 512.0 mg/kg/injection, schedule: Q01DX005 (ip), vehicle: suspension in saline); 98 % of control (dose: 800.0 mg/kg/injection, schedule: Q01DX005 (ip), vehicle: saline with Tween-80); 107 % of control (dose: 1000.0 mg/kg/injection, schedule: Q01DX003 (ip), vehicle: saline with Tween-80). The T/C is 106 % of control and 112 % of control (dose: 1000.0 mg/kg/injection, schedule: Q04DX003 (ip), vehicle: saline with Tween-80); 103 % of control (dose: 1024.0 mg/kg/injection, schedule: Q01DX005 (ip), vehicle: suspension in saline); 101 % of control (dose: 1600.0 mg/kg/injection, schedule: Q01DX005 (ip), vehicle: saline with Tween-80); 97 % of control (dose: 2000.0 mg/kg/injection, schedule: Q01DX003 (ip), vehicle: saline with Tween-80); 116 % of control and 89 % of control (dose: 2000.0 mg/kg/injection, schedule: Q04DX003 (ip), vehicle: saline with Tween-80); 94 % of control (dose: 3000.0 mg/kg/injection, schedule: Q01DX003 (ip), vehicle: saline with Tween-80). Moreover, the T/C was 94 % of control and 104 % of control (dose: 3000.0 mg/kg/injection, schedule: Q04DX003 (ip), vehicle: saline with Tween-80); 91 % of control (dose: 3200.0 mg/kg/injection, schedule: Q01DX005 (ip), vehicle: saline with Tween-80).
As to `CC(=O)OCC1C(=O)OCC1C(=O)N1Cc2cc3ccccc3nc2C1` (stereo unspecified), the T/C is 99 % of control (dose: 4.0 mg/kg/injection, schedule: Q01DX005 (ip), vehicle: saline with Tween-80); 103 % of control and 104 % of control (dose: 8.0 mg/kg/injection, schedule: Q01DX005 (ip), vehicle: saline with Tween-80); 104 % of control under setting [1]; 104 % of control (dose: 32.0 mg/kg/injection, schedule: Q01DX005 (ip), vehicle: saline with Tween-80); 90 % of control and 101 % of control (dose: 64.0 mg/kg/injection, schedule: Q01DX005 (ip), vehicle: saline with Tween-80); 90 % of control under setting [2].
Turning to `CN(C)/N=N/c1nc[nH]c1C(N)=O`, the T/C is 120 % of control (dose: 3.12 mg/kg/injection, schedule: Q01DX005 (ip), vehicle: saline with Tween-80); 114 % of control (dose: 6.25 mg/kg/injection, schedule: Q01DX005 (ip), vehicle: saline with Tween-80); 115 % of control (dose: 12.5 mg/kg/injection, schedule: Q01DX005 (ip), vehicle: Klucel (hydroxypropylcellulose) (HPC)); 111 % of control under setting [1]; 114 % of control (dose: 25.0 mg/kg/injection, schedule: Q01DX005 (ip), vehicle: Klucel (hydroxypropylcellulose) (HPC)); 120 % of control (dose: 50.0 mg/kg/injection, schedule: Q01DX005 (ip), vehicle: Klucel (hydroxypropylcellulose) (HPC)). The T/C runs as follows: (dose: 100.0 mg/kg/injection, schedule: Q01DX005 (ip), vehicle: saline with Tween-80) 156 % of control; under setting [2], 155 % of control.
